PMC7550323 (Clinical Pharmacokinetics, 2020)

Columns and labels:
CYP3A4 [1] = target: T1, CYP3A4 (Homo sapiens, UniProt P08684); assay: Effect of gilteritinib on the pharmacokinetics of midazolam; details: for AUC24, GLSM ratio (midazolam + gilteritinib/midazolam alone) / Cmax, GLSM ratio (midazolam + gilteritinib/midazolam alone): 100 indicates no change; for increase in AUC24 on coadministration of gilteritinib with midazolam / increase in Cmax on coadministration of gilteritinib with midazolam: relative to midazolam alone
T1 sequence (P08684 whole entry): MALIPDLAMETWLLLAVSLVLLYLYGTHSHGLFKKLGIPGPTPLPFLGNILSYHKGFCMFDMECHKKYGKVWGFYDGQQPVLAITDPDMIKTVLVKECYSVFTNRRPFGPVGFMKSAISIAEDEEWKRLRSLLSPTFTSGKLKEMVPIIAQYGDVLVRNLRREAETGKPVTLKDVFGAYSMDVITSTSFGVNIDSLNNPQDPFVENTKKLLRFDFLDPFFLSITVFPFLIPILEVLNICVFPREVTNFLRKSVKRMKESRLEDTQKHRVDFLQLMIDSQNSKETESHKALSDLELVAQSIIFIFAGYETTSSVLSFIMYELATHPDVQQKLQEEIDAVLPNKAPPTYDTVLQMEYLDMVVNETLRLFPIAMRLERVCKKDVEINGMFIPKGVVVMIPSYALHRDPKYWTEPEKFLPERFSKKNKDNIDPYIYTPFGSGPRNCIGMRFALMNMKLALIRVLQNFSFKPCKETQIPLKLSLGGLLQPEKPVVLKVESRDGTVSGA

CYP3A4 [2] = target: T1, CYP3A4; assay: clinical; details: plasma, po, 2 mg
[3] = human, in vivo; cited from earlier work

Row | Compound | AUC24, GLSM ratio (midazolam + gilteritinib/midazolam alone) (CYP3A4 [1]; N = 8) | Cmax, GLSM ratio (midazolam + gilteritinib/midazolam alone) (CYP3A4 [1]; N = 9) | AUC24, MDZ + gilteritinib (GLSM) (CYP3A4 [1]; midazolam 2 mg oral on Cycle 1 Day 15 with gilteritinib 300 mg QD, N = 8) | Cmax, MDZ + gilteritinib (GLSM) (CYP3A4 [1]; midazolam 2 mg oral on Cycle 1 Day 15 with gilteritinib 300 mg QD, N = 9) | AUC24, MDZ alone (GLSM) (CYP3A4 [1]; midazolam 2 mg oral on Day-1, N = 8) | Cmax, MDZ alone (GLSM) (CYP3A4 [1]; midazolam 2 mg oral on Day-1, N = 9) | increase in AUC24 on coadministration of gilteritinib with midazolam (CYP3A4 [1]) | increase in Cmax on coadministration of gilteritinib with midazolam (CYP3A4 [1]) | AUC (CYP3A4 [2]) | Cmax (CYP3A4 [2]) | half-life [3] | increase in exposure when coadministered with itraconazole [3] | increase in exposure when coadministered with ketoconazole [3] | increase in exposure with a high-fat meal [3]
1 | OCc1ncc2n1-c1ccc(Cl)cc1C(c1ccccc1F)=NC2 [1-hydroxymidazolam] | 149.9% | 123.5% | 17.0 ng·h/mL | 4.3 ng/mL | 11.3 ng·h/mL | 3.5 ng/mL | ~50% | approximately 23% | – | – | – | – | – | –
2 | Cc1ncc2n1-c1ccc(Cl)cc1C(c1ccccc1F)=NC2 [midazolam, reference compound] | 109.5% | 111.6% | – | – | – | – | 10% | 10% | 54.3 ng·h/mL | 14.3 ng/mL | – | – | – | –
3 | CO[C@@H]1[C@H](N(C)C(=O)c2ccccc2)C[C@H]2O[C@]1(C)n1c3ccccc3c3c4c(c5c6ccccc6n2c5c31)C(=O)NC4 [midostaurin] | – | – | – | – | – | – | – | – | – | – | 21 h | 2.1 fold | 10.4 fold | 1.6 fold
